#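 The compound was tested at five concentrations on cells cultured in 96-well plates, with a 48-hour exposure period. The concentration for full growth arrest is given as TGI.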
# Experiments:
# Assay in all cases: NCI tumour cell line growth inhibition, 48 h
# [1] = test system: 786-0 renal
# [2] = test system: A498 renal
# [3] = test system: A549 NSCLC
# [4] = test system: ACHN renal
# [5] = test system: BT-549 breast
# [6] = test system: CAKI-1 renal
# [7] = test system: CCRF-CEM leukemia
# [8] = test system: DU-145 prostate
# [9] = test system: EKVX NSCLC
# [10] = test system: HCT-116 colon
# [11] = test system: HCT-15 colon
# [12] = test system: HL-60(TB) leukemia
# [13] = test system: HOP-62 NSCLC
# [14] = test system: HOP-92 NSCLC
# [15] = test system: HS 578T breast
# [16] = test system: HT29 colon
# [17] = test system: IGROV1 ovarian
# [18] = test system: K-562 leukemia
# [19] = test system: KM12 colon
# [20] = test system: LOX IMVI melanoma
# [21] = test system: M14 melanoma
# [22] = test system: MALME-3M melanoma
# [23] = test system: MDA-MB-231 breast
# [24] = test system: MDA-N
# [25] = test system: MOLT-4 leukemia
# [26] = test system: NCI-H226 lung
# [27] = test system: NCI-H23 lung
# [28] = test system: NCI-H460 lung
# [29] = test system: NCI-H522 lung
# [30] = test system: NCI/ADR-RES ovarian
# [31] = test system: OVCAR-3 ovarian
# [32] = test system: OVCAR-4 ovarian
# [33] = test system: OVCAR-5 ovarian
# [34] = test system: OVCAR-8 ovarian
# [35] = test system: PC-3 prostate
# [36] = test system: RPMI-8226 leukemia
# [37] = test system: RXF 393 renal
# [38] = test system: SF-268 CNS
# [39] = test system: SF-295 CNS
# [40] = test system: SK-MEL-2 melanoma
# [41] = test system: SK-MEL-28 melanoma
# [42] = test system: SK-MEL-5 melanoma
# [43] = test system: SN12C renal
# [44] = test system: SNB-19 CNS
# [45] = test system: SR leukemia
# [46] = test system: SW-620 colon
# [47] = test system: T-47D breast
# [48] = test system: TK-10 renal
# [49] = test system: U251 CNS
# [50] = test system: UACC-257 melanoma
# [51] = test system: UACC-62 melanoma
# [52] = test system: UO-31 renal
# [53] = test system: COLO 205 colon
# [54] = test system: MCF7 breast
# [55] = test system: MDA-MB-435
# [56] = test system: SF-539 CNS
# [57] = test system: SK-OV-3 ovarian
# [58] = test system: SNB-75 CNS
compound,measurement,setting,value
Cc1cccc2c1Oc1ccccc1C2NC(=O)c1ccc([N+](=O)[O-])cc1 (stereo unspecified),TGI,[1],> 100 µM
same,TGI,[2],> 100 µM
same,TGI,[3],> 100 µM
same,TGI,[4],> 100 µM
same,TGI,[5],> 100 µM
same,TGI,[6],> 100 µM
same,TGI,[7],> 100 µM
same,TGI,[8],> 100 µM
same,TGI,[9],> 100 µM
same,TGI,[10],> 100 µM
same,TGI,[11],> 100 µM
same,TGI,[12],> 100 µM
same,TGI,[13],> 100 µM
same,TGI,[14],> 100 µM
same,TGI,[15],82.6 µM
same,TGI,[16],> 100 µM
same,TGI,[17],> 100 µM
same,TGI,[18],> 100 µM
same,TGI,[19],> 100 µM
same,TGI,[20],> 100 µM
same,TGI,[21],> 100 µM
same,TGI,[22],> 100 µM
same,TGI,[23],> 100 µM
same,TGI,[24],> 100 µM
same,TGI,[25],> 100 µM
same,TGI,[26],63.9 µM
same,TGI,[27],> 100 µM
same,TGI,[28],> 100 µM
same,TGI,[29],> 100 µM
same,TGI,[30],> 100 µM
same,TGI,[31],> 100 µM
same,TGI,[32],> 100 µM
same,TGI,[33],> 100 µM
same,TGI,[34],> 100 µM
same,TGI,[35],> 100 µM
same,TGI,[36],> 100 µM
same,TGI,[37],89.2 µM
same,TGI,[38],> 100 µM
same,TGI,[39],> 100 µM
same,TGI,[40],> 100 µM
same,TGI,[41],> 100 µM
same,TGI,[42],> 100 µM
same,TGI,[43],91 µM
same,TGI,[44],> 100 µM
same,TGI,[45],> 100 µM
same,TGI,[46],> 100 µM
same,TGI,[47],> 100 µM
same,TGI,[48],> 100 µM
same,TGI,[49],> 100 µM
same,TGI,[50],> 100 µM
same,TGI,[51],> 100 µM
same,TGI,[52],> 100 µM
CCNC1(c2cccc(C)c2)OC(C)(C)c2cccc3cccc1c23 (stereo unspecified),TGI,[1],37.6 µM
same,TGI,[2],32.2 µM
same,TGI,[3],30.9 µM
same,TGI,[4],32.4 µM
same,TGI,[5],37.2 µM
same,TGI,[6],48.1 µM
same,TGI,[7],26.4 µM
same,TGI,[53],34 µM
same,TGI,[8],36.1 µM
same,TGI,[9],38 µM
same,TGI,[10],97.4 µM
same,TGI,[11],42.9 µM
same,TGI,[12],19.7 µM
same,TGI,[13],48.9 µM
same,TGI,[14],22.4 µM
same,TGI,[15],44.3 µM
same,TGI,[16],27.8 µM
same,TGI,[17],37.5 µM
same,TGI,[18],> 100 µM
same,TGI,[19],69.8 µM
same,TGI,[20],32.6 µM
same,TGI,[21],38.1 µM
same,TGI,[22],34.3 µM
same,TGI,[54],34.9 µM
same,TGI,[55],33.2 µM
same,TGI,[24],36.8 µM
same,TGI,[26],39 µM
same,TGI,[27],34 µM
same,TGI,[28],30 µM
same,TGI,[29],29.6 µM
same,TGI,[30],42.6 µM
same,TGI,[31],33.2 µM
same,TGI,[32],29.9 µM
same,TGI,[33],38.1 µM
same,TGI,[34],36.5 µM
same,TGI,[36],15.8 µM
same,TGI,[37],32.1 µM
same,TGI,[38],30.9 µM
same,TGI,[39],35.2 µM
same,TGI,[56],34.9 µM
same,TGI,[40],30.3 µM
same,TGI,[42],34.8 µM
same,TGI,[57],37.9 µM
same,TGI,[43],35.9 µM
same,TGI,[44],33.6 µM
same,TGI,[58],30 µM
same,TGI,[45],35.9 µM
same,TGI,[46],36.6 µM
same,TGI,[47],> 100 µM
same,TGI,[48],38.3 µM
same,TGI,[49],31.4 µM
same,TGI,[50],37.9 µM
same,TGI,[51],31 µM
same,TGI,[52],29.8 µM
